Measured values from article PMC10682951, “Structure-function and rational design of a spider toxin Ssp1a at human voltage-gated sodium channel subtypes” (Frontiers in Pharmacology, 2023).
Bridge positions count the residues as written; N and C are the ends. Peptide text beside a SMILES is read from it.

How the values were obtained:
Type in all cases: cell-based
hNaV1.2 = target: T1, hNaV1.2 (Homo sapiens, UniProt Q99250); experiment: Automated whole-cell patch-clamp (QPatch 16X), hNaV1.2; conditions: HEK293 cells expressing hNaV1.2 + β1 subunit; QPatch 16X; holding −80 mV, step to 0 mV; peptide incubated 2 min; 0.1% BSA; mean, SEM and n (2-7)
T1 construct: host or cells: HEK293
Procedure, shortened: (§1)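 HEK293 cells stably expressing the channel (human subtypes with β1 subunit), held at −80 mV; 2 min peptide pre-incubation, then 20 ms steps to 0 mV after a 200 ms −120 mV conditioning pulse. Extracellular pH 7.3 with 20 mM TEA-Cl, CsF-based pipette solution, 0.1% BSA; IC50 from four-parameter Hill fit.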

hNaV1.3 = target: T2, hNaV1.3 (Homo sapiens, UniProt Q9NY46); experiment: Automated whole-cell patch-clamp (QPatch 16X), hNaV1.3; conditions: HEK293 cells expressing hNaV1.3 + β1 subunit; QPatch 16X; holding −80 mV, step to 0 mV; peptide incubated 2 min; 0.1% BSA; mean, SEM and n (3-12)
T2 construct: host or cells: HEK293
Procedure, shortened: as §1

hNaV1.7 = target: T3, hNaV1.7 (Homo sapiens, UniProt Q15858); experiment: Automated whole-cell patch-clamp (QPatch 16X), hNaV1.7; conditions: HEK293 cells expressing hNaV1.7 + β1 subunit; QPatch 16X; holding −80 mV, step to 0 mV; peptide incubated 2 min; 0.1% BSA; mean, SEM and n (3-9)
T3 construct: host or cells: HEK293
Procedure, shortened: as §1

T2 sequence (Q9NY46 whole entry): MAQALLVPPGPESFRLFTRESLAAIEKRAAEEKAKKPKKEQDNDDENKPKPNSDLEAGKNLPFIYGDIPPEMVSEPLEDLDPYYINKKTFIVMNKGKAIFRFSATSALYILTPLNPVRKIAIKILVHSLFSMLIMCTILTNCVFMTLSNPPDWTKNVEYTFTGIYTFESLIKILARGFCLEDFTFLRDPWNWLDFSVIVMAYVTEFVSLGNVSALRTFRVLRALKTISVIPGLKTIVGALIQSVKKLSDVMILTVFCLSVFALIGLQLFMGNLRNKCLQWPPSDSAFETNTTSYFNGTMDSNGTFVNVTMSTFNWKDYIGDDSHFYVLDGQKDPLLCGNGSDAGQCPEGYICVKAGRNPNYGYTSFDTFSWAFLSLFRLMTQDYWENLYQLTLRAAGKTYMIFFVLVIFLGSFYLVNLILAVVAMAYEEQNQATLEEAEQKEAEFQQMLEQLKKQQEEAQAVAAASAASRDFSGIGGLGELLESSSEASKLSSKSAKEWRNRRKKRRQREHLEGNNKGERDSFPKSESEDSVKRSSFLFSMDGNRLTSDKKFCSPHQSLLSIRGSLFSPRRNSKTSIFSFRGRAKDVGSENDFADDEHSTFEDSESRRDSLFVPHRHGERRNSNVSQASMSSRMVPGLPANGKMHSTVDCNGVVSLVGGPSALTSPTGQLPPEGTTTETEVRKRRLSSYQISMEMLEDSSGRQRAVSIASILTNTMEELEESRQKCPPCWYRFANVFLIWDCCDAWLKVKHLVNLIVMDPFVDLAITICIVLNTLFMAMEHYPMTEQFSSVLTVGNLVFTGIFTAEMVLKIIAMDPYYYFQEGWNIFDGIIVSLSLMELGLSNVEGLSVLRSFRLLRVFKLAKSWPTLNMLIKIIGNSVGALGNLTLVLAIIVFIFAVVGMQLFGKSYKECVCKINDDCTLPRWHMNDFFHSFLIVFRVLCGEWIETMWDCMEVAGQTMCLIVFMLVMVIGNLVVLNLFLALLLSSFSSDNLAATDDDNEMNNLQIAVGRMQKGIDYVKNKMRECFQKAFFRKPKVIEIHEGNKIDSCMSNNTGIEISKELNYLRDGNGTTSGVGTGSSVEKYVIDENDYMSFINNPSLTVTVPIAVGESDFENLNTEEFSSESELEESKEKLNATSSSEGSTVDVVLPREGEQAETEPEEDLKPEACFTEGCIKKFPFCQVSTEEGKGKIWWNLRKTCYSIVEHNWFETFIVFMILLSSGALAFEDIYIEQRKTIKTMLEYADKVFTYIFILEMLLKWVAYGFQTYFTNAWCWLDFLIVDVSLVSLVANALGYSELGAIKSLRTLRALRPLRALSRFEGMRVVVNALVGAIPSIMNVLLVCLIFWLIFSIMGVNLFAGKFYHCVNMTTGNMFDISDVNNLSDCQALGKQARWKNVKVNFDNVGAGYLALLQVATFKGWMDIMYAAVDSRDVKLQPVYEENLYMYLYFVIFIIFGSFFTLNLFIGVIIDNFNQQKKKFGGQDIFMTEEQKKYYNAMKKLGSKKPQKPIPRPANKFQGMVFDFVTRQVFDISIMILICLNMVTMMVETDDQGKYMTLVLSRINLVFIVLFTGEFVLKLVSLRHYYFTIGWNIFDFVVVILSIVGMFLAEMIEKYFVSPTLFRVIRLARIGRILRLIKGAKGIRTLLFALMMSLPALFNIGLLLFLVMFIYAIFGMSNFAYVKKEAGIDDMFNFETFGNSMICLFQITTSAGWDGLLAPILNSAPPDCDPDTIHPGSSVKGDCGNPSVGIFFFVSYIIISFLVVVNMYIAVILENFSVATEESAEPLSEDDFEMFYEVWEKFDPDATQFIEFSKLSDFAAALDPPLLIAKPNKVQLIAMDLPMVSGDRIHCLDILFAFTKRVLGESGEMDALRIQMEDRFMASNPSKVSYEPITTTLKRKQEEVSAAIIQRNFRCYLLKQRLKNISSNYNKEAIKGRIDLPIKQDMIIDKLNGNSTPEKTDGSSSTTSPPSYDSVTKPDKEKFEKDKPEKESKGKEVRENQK
T2 sequence (Q07699 19-218, further chain): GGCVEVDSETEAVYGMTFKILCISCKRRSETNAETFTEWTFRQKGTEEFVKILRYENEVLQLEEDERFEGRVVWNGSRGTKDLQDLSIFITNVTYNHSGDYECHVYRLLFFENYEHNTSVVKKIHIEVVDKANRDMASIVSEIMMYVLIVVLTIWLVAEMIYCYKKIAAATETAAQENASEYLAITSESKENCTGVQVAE
T1 sequence (Q07699 19-218): as the sequence (Q07699 19-218, further chain) above
T1 sequence (Q99250 whole entry): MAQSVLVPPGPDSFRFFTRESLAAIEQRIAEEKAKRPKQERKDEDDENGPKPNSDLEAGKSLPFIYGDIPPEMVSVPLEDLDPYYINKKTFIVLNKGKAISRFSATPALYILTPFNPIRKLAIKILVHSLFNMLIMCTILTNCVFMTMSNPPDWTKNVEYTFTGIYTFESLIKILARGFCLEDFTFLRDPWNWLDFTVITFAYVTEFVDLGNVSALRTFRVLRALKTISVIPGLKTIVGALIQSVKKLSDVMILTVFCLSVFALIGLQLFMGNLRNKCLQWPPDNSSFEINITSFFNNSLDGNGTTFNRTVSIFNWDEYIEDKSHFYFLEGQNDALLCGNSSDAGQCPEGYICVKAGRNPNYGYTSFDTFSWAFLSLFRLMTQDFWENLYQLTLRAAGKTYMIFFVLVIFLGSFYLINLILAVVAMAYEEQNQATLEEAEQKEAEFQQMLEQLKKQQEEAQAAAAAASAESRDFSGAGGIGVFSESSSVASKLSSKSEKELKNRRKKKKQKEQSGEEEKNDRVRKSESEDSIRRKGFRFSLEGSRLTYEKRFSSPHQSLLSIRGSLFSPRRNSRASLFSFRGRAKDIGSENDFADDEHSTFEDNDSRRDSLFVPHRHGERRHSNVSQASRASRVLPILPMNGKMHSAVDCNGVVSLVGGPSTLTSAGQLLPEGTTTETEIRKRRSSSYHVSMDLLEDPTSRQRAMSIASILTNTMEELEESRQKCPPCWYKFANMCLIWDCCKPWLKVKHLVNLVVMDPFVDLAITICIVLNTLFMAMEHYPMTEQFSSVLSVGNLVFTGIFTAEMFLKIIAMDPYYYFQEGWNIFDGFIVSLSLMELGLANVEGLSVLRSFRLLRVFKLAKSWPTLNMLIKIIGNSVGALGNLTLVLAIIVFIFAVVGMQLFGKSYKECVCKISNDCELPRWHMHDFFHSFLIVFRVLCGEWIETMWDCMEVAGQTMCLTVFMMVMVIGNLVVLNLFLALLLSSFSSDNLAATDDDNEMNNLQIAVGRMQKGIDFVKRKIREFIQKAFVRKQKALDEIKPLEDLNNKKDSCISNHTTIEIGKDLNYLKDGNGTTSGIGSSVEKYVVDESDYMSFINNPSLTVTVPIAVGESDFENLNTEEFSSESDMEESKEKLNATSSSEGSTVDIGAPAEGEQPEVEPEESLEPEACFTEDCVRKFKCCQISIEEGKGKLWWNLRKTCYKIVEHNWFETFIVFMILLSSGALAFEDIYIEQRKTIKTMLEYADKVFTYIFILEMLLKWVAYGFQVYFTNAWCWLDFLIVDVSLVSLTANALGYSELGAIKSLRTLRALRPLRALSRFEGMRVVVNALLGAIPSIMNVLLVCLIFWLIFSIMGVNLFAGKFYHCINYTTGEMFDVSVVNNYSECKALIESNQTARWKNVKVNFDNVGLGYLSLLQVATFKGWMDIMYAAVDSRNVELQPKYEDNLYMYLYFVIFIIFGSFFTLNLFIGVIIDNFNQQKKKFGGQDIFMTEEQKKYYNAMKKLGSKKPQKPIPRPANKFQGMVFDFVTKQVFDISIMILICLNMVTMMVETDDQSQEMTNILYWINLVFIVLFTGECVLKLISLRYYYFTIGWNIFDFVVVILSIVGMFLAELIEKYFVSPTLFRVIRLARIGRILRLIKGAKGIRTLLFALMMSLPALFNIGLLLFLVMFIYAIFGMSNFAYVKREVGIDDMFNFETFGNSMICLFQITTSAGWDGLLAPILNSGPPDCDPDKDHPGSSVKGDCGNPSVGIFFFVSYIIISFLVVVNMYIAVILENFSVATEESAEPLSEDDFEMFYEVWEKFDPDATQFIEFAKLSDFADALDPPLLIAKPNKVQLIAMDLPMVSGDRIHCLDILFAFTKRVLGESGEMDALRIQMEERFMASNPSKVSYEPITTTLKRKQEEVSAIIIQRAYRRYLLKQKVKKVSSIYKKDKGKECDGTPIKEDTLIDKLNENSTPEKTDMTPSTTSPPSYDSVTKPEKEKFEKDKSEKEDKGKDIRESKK

SMILES | IC50 (hNaV1.2) | IC50 (hNaV1.3) | IC50 (hNaV1.7)
CC(C)C[C@H](NC(=O)[C@H](CC(=O)O)NC(=O)[C@H](Cc1ccc(O)cc1)NC(=O)[C@H](CCCNC(=N)N)NC(=O)[C@@H]1CSSC[C@@H]2NC(=O)[C@H](CCCCN)NC(=O)[C@H](CC(N)=O)NC(=O)[C@H](CC(N)=O)NC(=O)[C@H](CC(N)=O)NC(=O)[C@@H]3CCCN3C(=O)[C@H](CC(=O)O)NC(=O)[C@@H]3CSSC[C@H](NC(=O)[C@H](C(C)C)NC(=O)[C@H](Cc4ccc(O)cc4)NC(=O)CNC(=O)[C@H](CCC(=O)O)NC(=O)[C@H](CSSC[C@H](NC(=O)[C@H](CC(=O)O)NC(=O)CN)C(=O)N[C@@H](CC(C)C)C(=O)N[C@@H](CCC(N)=O)C(=O)N[C@@H](Cc4c[nH]c5ccccc45)C(=O)N[C@@H](Cc4ccccc4)C(=O)N[C@@H](CO)C(=O)NCC(=O)N3)NC2=O)C(=O)N[C@@H](Cc2c[nH]cn2)C(=O)N[C@@H](Cc2c[nH]c3ccccc23)C(=O)N[C@@H](CCCCN)C(=O)N[C@@H](Cc2ccc(O)cc2)C(=O)N2CCC[C@H]2C(=O)N[C@@H](Cc2c[nH]c3ccccc23)C(=O)N1)C(=O)O [G4Q] | 503 nM | 999 nM | 606 nM
CC(C)C[C@H](NC(=O)[C@H](CC(=O)O)NC(=O)[C@H](Cc1ccc(O)cc1)NC(=O)[C@H](CCCNC(=N)N)NC(=O)[C@@H]1CSSC[C@@H]2NC(=O)[C@H](CCCCN)NC(=O)[C@H](CC(N)=O)NC(=O)[C@H](CC(N)=O)NC(=O)[C@H](CC(N)=O)NC(=O)[C@@H]3CCCN3C(=O)[C@H](CC(=O)O)NC(=O)[C@@H]3CSSC[C@H](NC(=O)[C@H](C(C)C)NC(=O)[C@H](Cc4ccc(O)cc4)NC(=O)CNC(=O)[C@H](CCCCN)NC(=O)[C@H](CSSC[C@H](NC(=O)[C@H](CC(=O)O)NC(=O)CN)C(=O)N[C@@H](CC(C)C)C(=O)NCC(=O)N[C@@H](Cc4c[nH]c5ccccc45)C(=O)N[C@@H](Cc4ccccc4)C(=O)N[C@@H](CCCNC(=N)N)C(=O)NCC(=O)N3)NC2=O)C(=O)N[C@@H](Cc2c[nH]cn2)C(=O)N[C@@H](Cc2c[nH]c3ccccc23)C(=O)N[C@@H](CCCCN)C(=O)N[C@@H](Cc2ccc(O)cc2)C(=O)N2CCC[C@H]2C(=O)N[C@@H](Cc2c[nH]c3ccccc23)C(=O)N1)C(=O)O [E18K/S7R] (H-GDCLGWFRGCDPNNNKCCKGYVCHWKYPWCRYDL-OH; disulfide 3-18, 10-23, 17-30) | 40 nM | 59 nM | 40 nM
CC(C)C[C@H](NC(=O)[C@H](CC(=O)O)NC(=O)[C@H](Cc1ccc(O)cc1)NC(=O)[C@H](CCCNC(=N)N)NC(=O)[C@@H]1CSSC[C@@H]2NC(=O)[C@H](CCCCN)NC(=O)[C@H](CC(N)=O)NC(=O)[C@H](CC(N)=O)NC(=O)[C@H](CC(N)=O)NC(=O)[C@@H]3CCCN3C(=O)[C@H](CC(=O)O)NC(=O)[C@@H]3CSSC[C@H](NC(=O)[C@H](C(C)C)NC(=O)[C@H](Cc4ccc(O)cc4)NC(=O)CNC(=O)[C@H](CCC(=O)O)NC(=O)[C@H](CSSC[C@H](NC(=O)CNC(=O)CN)C(=O)N[C@@H](CC(C)C)C(=O)NCC(=O)N[C@@H](Cc4c[nH]c5ccccc45)C(=O)N[C@@H](Cc4ccccc4)C(=O)N[C@@H](CO)C(=O)NCC(=O)N3)NC2=O)C(=O)N[C@@H](Cc2c[nH]cn2)C(=O)N[C@@H](Cc2c[nH]c3ccccc23)C(=O)N[C@@H](CCCCN)C(=O)N[C@@H](Cc2ccc(O)cc2)C(=O)N2CCC[C@H]2C(=O)N[C@@H](Cc2c[nH]c3ccccc23)C(=O)N1)C(=O)O [D1G] | 192 nM | 499 nM | 307 nM
CC(C)C[C@H](NC(=O)[C@H](CC(=O)O)NC(=O)[C@H](Cc1ccc(O)cc1)NC(=O)[C@H](CCCNC(=N)N)NC(=O)[C@@H]1CSSC[C@@H]2NC(=O)[C@H](CCCCN)NC(=O)[C@H](CC(N)=O)NC(=O)CNC(=O)[C@H](CC(N)=O)NC(=O)[C@@H]3CCCN3C(=O)[C@H](CC(=O)O)NC(=O)[C@@H]3CSSC[C@H](NC(=O)[C@H](C(C)C)NC(=O)[C@H](Cc4ccc(O)cc4)NC(=O)CNC(=O)[C@H](CCC(=O)O)NC(=O)[C@H](CSSC[C@H](NC(=O)[C@H](CC(=O)O)NC(=O)CN)C(=O)N[C@@H](CC(C)C)C(=O)NCC(=O)N[C@@H](Cc4c[nH]c5ccccc45)C(=O)N[C@@H](Cc4ccccc4)C(=O)N[C@@H](CO)C(=O)NCC(=O)N3)NC2=O)C(=O)N[C@@H](Cc2c[nH]cn2)C(=O)N[C@@H](Cc2c[nH]c3ccccc23)C(=O)N[C@@H](CCCCN)C(=O)N[C@@H](Cc2ccc(O)cc2)C(=O)N2CCC[C@H]2C(=O)N[C@@H](Cc2c[nH]c3ccccc23)C(=O)N1)C(=O)O [N13G] | 280 nM | 287 nM | 287 nM
CC(C)C[C@H](NC(=O)[C@H](CC(=O)O)NC(=O)[C@H](Cc1ccc(O)cc1)NC(=O)[C@H](CCCNC(=N)N)NC(=O)[C@@H]1CSSC[C@@H]2NC(=O)[C@H](CCCCN)NC(=O)[C@H](CC(N)=O)NC(=O)[C@H](CC(N)=O)NC(=O)[C@H](CC(N)=O)NC(=O)[C@@H]3CCCN3C(=O)[C@H](CC(=O)O)NC(=O)[C@@H]3CSSC[C@H](NC(=O)[C@H](C(C)C)NC(=O)[C@H](Cc4ccc(O)cc4)NC(=O)CNC(=O)[C@H](Cc4ccc(O)cc4)NC(=O)[C@H](CSSC[C@H](NC(=O)[C@H](CC(=O)O)NC(=O)CN)C(=O)N[C@@H](CC(C)C)C(=O)NCC(=O)N[C@@H](Cc4c[nH]c5ccccc45)C(=O)N[C@@H](Cc4ccccc4)C(=O)N[C@@H](CO)C(=O)NCC(=O)N3)NC2=O)C(=O)N[C@@H](Cc2c[nH]cn2)C(=O)N[C@@H](Cc2c[nH]c3ccccc23)C(=O)N[C@@H](CCCCN)C(=O)N[C@@H](Cc2ccc(O)cc2)C(=O)N2CCC[C@H]2C(=O)N[C@@H](Cc2c[nH]c3ccccc23)C(=O)N1)C(=O)O [E18Y] | 203 nM | 300 nM | 179 nM
CC(C)C[C@H](NC(=O)[C@H](CC(=O)O)NC(=O)[C@H](Cc1ccc(O)cc1)NC(=O)[C@H](CCCNC(=N)N)NC(=O)[C@@H]1CSSC[C@@H]2NC(=O)[C@H](CCCCN)NC(=O)[C@H](C)NC(=O)[C@H](CC(N)=O)NC(=O)[C@H](CC(N)=O)NC(=O)[C@@H]3CCCN3C(=O)[C@H](CC(=O)O)NC(=O)[C@@H]3CSSC[C@H](NC(=O)[C@H](C(C)C)NC(=O)[C@H](Cc4ccc(O)cc4)NC(=O)CNC(=O)[C@H](CCC(=O)O)NC(=O)[C@H](CSSC[C@H](NC(=O)[C@H](CC(=O)O)NC(=O)CN)C(=O)N[C@@H](CC(C)C)C(=O)NCC(=O)N[C@@H](Cc4c[nH]c5ccccc45)C(=O)N[C@@H](Cc4ccccc4)C(=O)N[C@@H](CO)C(=O)NCC(=O)N3)NC2=O)C(=O)N[C@@H](Cc2c[nH]cn2)C(=O)N[C@@H](Cc2c[nH]c3ccccc23)C(=O)N[C@@H](CCCCN)C(=O)N[C@@H](Cc2ccc(O)cc2)C(=O)N2CCC[C@H]2C(=O)N[C@@H](Cc2c[nH]c3ccccc23)C(=O)N1)C(=O)O [N14A] | 224 nM | 784 nM | 252 nM
CC(C)C[C@H](NC(=O)[C@H](CC(=O)O)NC(=O)[C@H](Cc1ccc(O)cc1)NC(=O)[C@H](CCCNC(=N)N)NC(=O)[C@@H]1CSSC[C@@H]2NC(=O)[C@H](CCCCN)NC(=O)[C@H](CC(N)=O)NC(=O)[C@H](CC(N)=O)NC(=O)[C@H](CC(N)=O)NC(=O)[C@@H]3CCCN3C(=O)[C@H](CC(=O)O)NC(=O)[C@@H]3CSSC[C@H](NC(=O)[C@H](C(C)C)NC(=O)[C@H](Cc4ccc(O)cc4)NC(=O)CNC(=O)[C@H](CCC(=O)O)NC(=O)[C@H](CSSC[C@H](NC(=O)[C@H](CC(=O)O)NC(=O)CN)C(=O)N[C@@H](CC(C)C)C(=O)NCC(=O)N[C@@H](Cc4c[nH]c5ccccc45)C(=O)N[C@@H](Cc4ccccc4)C(=O)N[C@@H](CCCCN)C(=O)NCC(=O)N3)NC2=O)C(=O)N[C@@H](Cc2c[nH]cn2)C(=O)N[C@@H](Cc2c[nH]c3ccccc23)C(=O)N[C@@H](CCCCN)C(=O)N[C@@H](Cc2ccc(O)cc2)C(=O)N2CCC[C@H]2C(=O)N[C@@H](Cc2ccccc2)C(=O)N1)C(=O)O [S7K/W28F] (H-GDCLGWFKGCDPNNNKCCEGYVCHWKYPFCRYDL-OH; disulfide 3-18, 10-23, 17-30) | > 3000 nM | > 3000 nM | 1470 nM
CC(C)C[C@H](NC(=O)[C@H](CC(=O)O)NC(=O)[C@H](Cc1ccc(O)cc1)NC(=O)[C@H](CCCNC(=N)N)NC(=O)[C@@H]1CSSC[C@@H]2NC(=O)[C@H](CCCCN)NC(=O)[C@H](CC(=O)O)NC(=O)[C@H](CC(N)=O)NC(=O)[C@H](CC(N)=O)NC(=O)[C@@H]3CCCN3C(=O)[C@H](CC(=O)O)NC(=O)[C@@H]3CSSC[C@H](NC(=O)[C@H](C(C)C)NC(=O)[C@H](Cc4ccc(O)cc4)NC(=O)CNC(=O)[C@H](CCC(=O)O)NC(=O)[C@H](CSSC[C@H](NC(=O)[C@H](CC(=O)O)NC(=O)CN)C(=O)N[C@@H](CC(C)C)C(=O)NCC(=O)N[C@@H](Cc4ccccc4)C(=O)N[C@@H](Cc4ccccc4)C(=O)N[C@@H](CO)C(=O)NCC(=O)N3)NC2=O)C(=O)N[C@@H](Cc2c[nH]cn2)C(=O)N[C@@H](Cc2c[nH]c3ccccc23)C(=O)N[C@@H](CCCCN)C(=O)N[C@@H](Cc2ccc(O)cc2)C(=O)N2CCC[C@H]2C(=O)N[C@@H](Cc2c[nH]c3ccccc23)C(=O)N1)C(=O)O [W5F/N14D] (H-GDCLGFFSGCDPNNDKCCEGYVCHWKYPWCRYDL-OH; disulfide 3-18, 10-23, 17-30) | 735 nM | 1200 nM | 391 nM
